{"source": "paper PMC4109680", "about": "“Identification and Preclinical Pharmacology of the γ-Secretase Modulator BMS-869780” (International Journal of Alzheimer's Disease, 2014)", "key": {"[1]": {"test_system": "duodenum, liver, and kidney", "test": "Histopathology in rat 4-day oral dosing experiment", "format": "in vivo", "protocol": "Determination of IC50 values for inhibition of secreted alkaline phosphatase (SEAP) was carried out using an H4 cell line stably expressing SEAP. Cells were treated overnight with compounds in 384-well format, and SEAP accumulation in the culture media was quantified using a chemiluminescence substrate. The pregnane-X-receptor transactivation assay (PXR-TA) was based on the methods of Goodwin et al. as described previously. In the 4-day rat study with BMS-869780, tissues were fixed in 10% neutral buffered formalin, embedded in paraffin, sectioned, stained with hematoxylin and eosin, and examined by light microscopy.\nAs a preliminary evaluation of safety in vivo, male and female rats were given 10, 30, and 100 mg/kg BMS-869780 orally once daily for 4 days. Endpoints included brain Aβ1-42, as described above (Figures 7(d) and 7(e)), plasma PK on day 1 and day 3 (Table 4), and histopathology for duodenum, liver, and kidney."}, "Aβ1-42 (MEF PS1wt)": {"test_system": "Aβ1-42 (MEF PS1wt)", "test": "Aβ1-42 ELISA in MEF dKO cultures cotransfected with APP-CTF and human presenilin-1 wild type", "format": "cell-based", "conditions": "wild type human presenilin-1", "protocol": "H4-APPsw cell cultures were maintained on Dulbecco's modified Eagle's medium (DMEM) supplemented with L-glutamine (2 mM), fetal bovine serum (10%), and G418 (100 μg/mL). […] Aβ1-42 and Aβ1-40 assays, and Notch inhibition assays, were carried out as described previously. Mouse embryonic fibroblasts deficient in PS1 and PS2 (MEF dKO) were passaged twice per week in DMEM/F-12 medium, consisting of a 1 : 1 mixture of DMEM and F-12 nutrient mixture supplemented with 10% fetal bovine serum, penicillin, and streptomycin. For expression of human presenilin-1 in MEF dKO cells, the full length human presenilin-1 cDNA open reading frame was cloned between the BamHI and XhoI sites of the vector pcDNA5/FRT (Invitrogen), placing presenilin-1 expression under the control of the CMV promoter. […]\nIC50 determinations for Aβ1-42 and Aβ1-40 in H4-APPsw cultures in 384-well format were determined using homogeneous time-resolved fluorescence immunoassays as previously described. […] In other experiments using H4-APPsw cultures, Aβ was quantified by ELISA; for Aβ1-42 the combination of monoclonal antibodies was 26D6 and 565-HRP; for Aβ1-40 it was TSD and 26D6-HRP, and for Aβ1-x it was 4G8 and 26D6-HRP. […] For Aβ in transiently transfected PS1/PS2 dKO fibroblasts, Aβ1-42 was quantified using an ELISA kit (WACO), and Aβ1-40 was quantified by ELISA as described above for H4-APPsw cultures. […]"}, "brain Aβ1-42": {"test_system": "brain Aβ1-42", "test": "Rat time course PK/PD, oral dose, indirect response model", "format": "in vivo", "conditions": "Rat 3 mg/kg PO solution (predicted steady state after 3 daily doses)"}}, "note": "Entries after “also recorded” stand apart in the source; their conditions may differ."}
{"molecule": "COc1cc(Nc2nc3n(n2)CCCC[C@H]3c2ccc(F)cc2)ccc1-n1cnc(Cl)c1", "note": "[BMS-869780]", "values": [{"measurement": "duodenum and kidney histology", "setting": "[1]; 10, 30 and 100 mg/kg orally once daily for 4 days", "result": "unchanged at all dose levels"}, {"measurement": "liver histology", "setting": "[1]; at all doses (10, 30, 100 mg/kg once daily for 4 days)", "result": "macro- and microvesicular vacuolar degeneration"}, {"measurement": "separation of hepatotoxicity from Aβ1-42 lowering exposure benchmarks", "setting": "[1]; lipidosis after four daily doses of 10 mg/kg", "result": "no separation of hepatotoxicity"}, {"measurement": "Notch-related effect in duodenum", "setting": "[1]; up to 100 mg/kg once daily for 4 days", "result": "no Notch-related effect on differentiation in the duodenum; also recorded: did not cause any histological change in duodenum"}, {"measurement": "IC50", "setting": "Aβ1-42 (MEF PS1wt)", "result": 7.7, "unit": "nM"}, {"measurement": "Brain Aβ ABEC 24 hr Aβ1-42", "setting": "brain Aβ1-42", "result": 26.9, "unit": "%"}, {"measurement": "Plasma AUC 0–24 hr", "setting": "brain Aβ1-42", "result": 18.6, "unit": "µM·h"}]}
